Data taken from patent US20010006966A1, “Use of 1- (aminoalkyl) -3-quinoxaline-2-on derivatives for the preparation of compounds having an antioxidant action” (priority 1998, published 2001).

Experiments:
skin cancer = assay: Prevention of skin cancer in UV-irradiated guinea pigs; type: in vivo; conditions: highly concentrated solution brushed on shaved neck; for cancer cells in tissue samples after two weeks of UV irradiation: UV-A, UV-B, UV-C at least two hours per day
From the text: Use of 1-(aminoalkyl)-3-quinoxaline-2-on derivatives for preventing skin cancer in guinea pigs.
A group of six guinea pigs was shaved in the neck region and exposed to intensive UV irradiation over a period of at least two hours per day. The UV irradiation contained portions of both UV-A and UV-B and UV-C rays. A highly concentrated solution of Caroverine.hydrochloride was brushed on the shaved neck regions of four of the six guinea pigs prior to the commencement of the first irradation, wherein attention was paid to that the distribution was effected as uniform as possible and over all of the irradiated zone.

[1] = human, in vivo
[2] = Comparative kinetic studies with ABTA, peroxyl radicals; type: biochemical; conditions: absence or presence of cerebral homogenate
Method: (§1) In respect of the antioxidative effect of 1-(aminoalkyl)-3-quinoxaline-2-on derivatives and in respect of their radical interceptor properties, in vitro tests were carried out with Caroverine and the specific radical intercepting reagent 2,2′-azino-bis(3-ethylbenz)thiazoline-6-sulfonic acid (ABTA) in order to compare the radical interceptor property of Caroverine with that of ABTA. In the presence of highly reactive radicals, ABTA is oxidized to the stable thiazoline cation radical ABTA^+. The intensive green color of that radical was photometrically measured with a main absorption band at 420 nm. […] Caroverine reacted rapidly with free hydroxyl, peroxyl and ABTA cation radicals, as was shown in comparative studies with ABTA in the absence and in the presence of cerebral homogenate. The rate constant for the reaction with hydroxyl radicals was 0.4×10^10 M/l/s and that for peroxyl radicals was 0.5×10^10 M/l/s, as was realized by comparative kinetic studies with ABTA in the absence or in the presence of cerebral homogenate (FIG. 6). […] In doing so, ABTA cation radical formation and reduction were applied, as already mentioned, in order to examine the single electron transfer reactions, since that substance enables direct measurements of radical formation and radical reduction on account of its color.

nerve cells = assay: In vitro tests for neuroregenerative effect; type: cell-based; conditions: low dosages, dosages known from the literature
HIV = HIV replication in macrophages derived from monocytes; type: cell-based
[3] = tested on: advanced head and throat tumors; assay: Patients with advanced head and throat tumors, added to chemotherapy; type: in vivo, human; conditions: beside the regular chemotherapy
[4] = Speech and articulation capacity of a patient after a stroke; type: in vivo, human; conditions: 4×160 mg i.v. per day, 3 months, approximately 50% at beginning of treatment
Method: A patient suffering from serious speech impediments due to a stroke was intravenously administered Caroverine over a period of 3 months at an elevated dose of 4×160 mg Caroverine in physiological saline per day.

[5] = tested on: metabotropic group I glutamate receptors; assay: Microelectrodes on the auditory nerve of the narcotized animal; type: in vivo, guinea pigs
From the text: Furthermore, the inhibiting influence of Caroverine on the metabotropic group I glutamate receptors was investigated on the narcotized animal by applying microelectrodes to the auditory nerve.

[6] = ABTA cation radical formation and reduction, photometric at 420 nm; type: biochemical
Method: as §1

[7] = tested on: metabotropic group I glutamate receptors; assay: Antagonism of metabotropic group I glutamate receptors in the ear of guinea pigs (behavior, ear electrodes); type: in vivo; conditions: 8 mg/kg into the vein of the ear
Method: Use of 1-(aminoalkyl)-3-quinoxaline-2-on derivatives as antagonists of the metabotropic group I glutamate receptors in the ear of guinea pigs.
A group of six guinea pigs was injected hydroxyphenyl glycerin as a receptor agonist into the ear, the receptor responding in a manner so as to strongly increase the auditory performance of the guinea pigs. […] Four of the six guinea pigs were subsequently injected a dose of 8 mg/kg body weight of the guinea pig into the vein of the ear and the behavior of the guinea pigs was observed. […] These behavioral peculiarities of the guinea pigs were also observed by applying electrodes to the ears of the animals, from whose measured data it could be readily read whether the exposure of the animals to unexpected noises caused excitement or not.

auditory nerve = assay: Sound audiogram in patients with severe sudden loss of hearing / cochlear implant; type: in vivo, human
Method: By way of clinical examples, the efficacy of Caroverine (1-diethylaminoethyl-3-(p-methoxybenzyl)-1,2-dihydroquinoxaline-2-on) as a neuroregenerative substance was tested in two patients suffering from a severe sudden loss of hearing. In the enclosed diagram of FIG. 1, the sound audiogram of a patient is shown, the dot-and-dash line illustrating the sound audiogram after a sudden loss of hearing, the broken line illustrating the sound audiogram immediately upon commencement of the treatment, and the full line illustrating the patient's sound audiogram two weeks after the beginning of treatment, the patient over that period having been treated by the administration of an elevated dose of Caroverine. 240 mg Caroverine dissolved in 250 ml physiological saline were each slowly administered intravenously three times a day. […] A cochlear implant was not inserted.

[8] = Treatment of patients suffering from type I allergy (hay fever); type: in vivo, human; conditions: 5 hay fever patients, tablet 150 mg three times a day
Method: 5 patients, 2 female and 3 male patients, suffering from type I allergy, namely hay fever, were treated with Caroverine at the occurrence of allergical primary reactions, i.e., sneezing, cervical irritations as well as rhinorrhea. They each received one tablet containing 150 mg Caroverine three times a day.
For comparative reasons, two patients were treated with usual antihistamines, wherein both the primary manifestations of the allergy and, in particular, the secondary manifestations could not be suppressed immediately and completely such that the patients were suffering from their disease hay fever substantially as long as straining by the causers, namely grass pollens, was maintained. Nor was it possible to discontinue the administration of the medicament as long as pollen flight was observed.

[9] = Treatment of patients suffering from Alzheimer's disease; type: in vivo, human; conditions: three weeks
From the text: By way of two male patients aged between 70 and 75 and suffering from Alzheimer's disease, the effect of Caroverine as a neuroregenerative substance was further investigated. The patients had average body weights of 75 kg and were in-patients. […] The time of treatment in each case was maintained for three weeks.

[10] = Comparative kinetic studies with ABTA, hydroxyl radicals; type: biochemical; conditions: absence or presence of cerebral homogenate
Method: as §1

[11] = Treatment of patients suffering from periodic schizophrenia; type: in vivo, human
Method: 4 patients, two female and two male patients, aged between 40 and 50 and suffering from periodic schizophrenia were treated with elevated doses of Caroverine during massive attacks. […] The treatment time was 7 days, 14 days and 21 days, respectively.

facial nerve = assay: Treatment of patients suffering from facial nerve paralysis; type: in vivo, human
Method: The neuroregenerative action of Caroverine was further investigated by way of two patients suffering from facial nerve paralysis. Two female patients suffering from a serious paralysis of the […] nerve were treated with Caroverine in the form of a combined cure over a period of 4 weeks, wherein, on the one hand, Caroverine was applied three times a day by intravenously administering 360 mg Caroverine each and the active substance, in addition, was administered in the form of a depot plaster containing 1000 mg Caroverine. The depot plaster was replaced once a week.

Ca2+ ion flux into cells = conditions: as stated in EP-A 0 032 564; cited from earlier work
carcinoma of the colon = assay: Patients with carcinoma of the colon, added to chemotherapy; type: in vivo, human; conditions: three patients; with Irinothekam and Oxaliplatine; day 1 i.v., other days 3×3 tablets a day
From the text: Three patients aged between 19 and 75 and suffering from carcinoma of the colon were additionally administered Caroverine beside the usual chemotherapy with Irinothekam and Oxaliplatine for the four-week period of chemotherapy, the administration on day 1 having been effected at an elevated dose, i.e., intravenously in physiological saline, and on the other days by administering 3×3 tablets a day.

[12] = Comparative studies of antioxidant and radical interceptor property; type: biochemical
From the text: wherein R is hydroxy, methoxy, ethoxy or hydrogen, or pharmaceutically acceptable salts thereof, for the preparation of compositions acting as antioxidants for preventing or treating diseases caused by free radicals of the oxygen cell metabolism, for stimulating the growth of nerve cells, antagonizing glutamate receptors and/or stimulating the growth of, in particular glutamatergic, nerve cells. […] Moreover, it has been shown in a surprising manner that specific 1-(aminoalkyl)-3-quinoxaline-2-on derivatives and, in particular, Caroverine are capable of antagonizing metabotropic glutamate receptors. Since glutamate receptors and, in particular, metabotropic glutamate receptors have been recognized as promoters or catalysts of intracellular metabolism, Caroverine and other 1-(aminoalkyl)-3-quinoxaline-2-on derivatives are capable of antagonizing, i.e., markedly retarding, in particular, that intracellular metabolism.
For that reason, Caroverine is supposed to be able to facilitate the repair of long-lived organic radicals and damaged biomolecules.

CCN(CC)CCn1c(=O)c(Cc2ccc(O)cc2)nc2ccccc21 [1-diethylaminoethyl-3-(p-hydroxybenzyl)-1,2-dihydroquinoxaline-2-on]
cancer cells in tissue samples after two weeks of UV irradiation (skin cancer): identical result
harmful side effects on the assayed cells (assayed cells): without harmful side effects
harmful side effects in test animals and patients [1]: without harmful side effects

CCN(CC)CCn1c(=O)c(Cc2ccc(OC)cc2)nc2ccccc21 [Caroverine, 1-diethylaminoethyl-3-(p-methoxybenzyl)-1,2-dihydroquinoxaline-2-on]
rate constant for the reaction with peroxyl radicals (FIG. 6) [2]: 0.5×10^10 M/l/s
neuroregenerative effect (nerve cells): no neuroregenerative effect
replication of HIV in macrophages derived from monocytes (HIV): markedly reduced
complete disappearance of head and throat tumors [3]: No complete disappearance of the tumors was feasible
tumor size, head and throat tumors [3]: reduction of the tumor size
articulation capacity after the end of treatment (FIG. 4) [4]: 100%
excitability of the metabotropic group I glutamate receptors [5]: strongly suppressed
formation of the ABTA cation radical due to hydroxyl and peroxyl radicals (FIG. 5) ([6]; in the absence and in the presence of cerebral homogenate): able to inhibit the formation of the ABTA cation radical
ABTA cation radical reduction ([6]; in the presence and in the absence of cerebral homogenate): catalyzes ABTA cation radical reduction
activity as an electron donor ([6]; low, micromolar concentrations): highly active as an electron donor
excitement upon unexpected noises, measured data of ear electrodes [7]: excitement was effected not at all or only to an extremely slight extent
behavior of guinea pigs upon noise after receptor agonist hydroxyphenyl glycerin ([7]; four of six guinea pigs): calmed down immediately
improvement of hearing performance (sound audiogram, FIG. 2), low doses (auditory nerve; patient, 160 mg three times a day): little significant
hearing performance (sound audiogram, FIG. 1) (auditory nerve; patient, 240 mg in 250 ml saline i.v. three times a day, two weeks): marked increase in the hearing performance
hearing performance 0.125 to 2 kHz (sound audiogram, FIG. 2), high doses plus cochlear implant (auditory nerve; patient, 240 mg/250 ml saline four times a day, two weeks, cochlear implant inserted): nearly corresponds to the hearing performance of a healthy individual
hearing performance 0.250 to 8 kH (sound audiogram, FIG. 3) (auditory nerve; patient, 300 mg in 500 ml saline each day, two weeks, no cochlear implant): essentially corresponds to the hearing performance of a healthy individual
audition of patients carrying cochlear implants (auditory nerve; simultaneous administration with cochlear implant): clearly enhancing the audition
harmful side effects on the assayed cells (assayed cells): without harmful side effects
secondary manifestations of the allergic reactions (cervical rubor and the like) [8]: could be avoided
primary reactions (sneezing, rhinorrhea and the like) ([8]; after two-day administration): completely disappeared
condition of Alzheimer patients, lower dose ([9]; 160 mg in 250 ml saline i.v. three times a day): not as pronounced and sustained
condition of Alzheimer patients at end of treatment ([9]; two male patients, 400 mg infusion three times a day): marked improvement in the conditions
rate constant for the reaction with hydroxyl radicals (FIG. 6) [10]: 0.4×10^10 M/l/s
persistence of the improvement beyond the treatment time ([11]; 400 mg infusion three times a day, 7, 14 or 21 days): only that patient whose treatment time was 21 days was successful even beyond the treatment time
behavior of schizophrenia patients during treatment ([11]; 4 patients, 400 mg infusion three times a day, 7, 14 or 21 days): marked improvements in their behaviors
behavior of schizophrenia patients, combination with Haloperidole ([11]; daily dose 240 mg or 400 mg Caroverine in combination with 10 mg Haloperidole): results analogous to those of the higher-dose administration of Caroverine
serious side effects usual with psychopharmacological agents (apathetic conditions, weight gains) ([11]; schizophrenia patients): could be avoided
signs of facial paralysis on further extension of treatment (facial nerve; same regimen, extended period): additional reductions of the paralytical signs
signs of facial paralysis after 2 weeks (facial nerve; two female patients, 360 mg i.v. three times a day plus depot plaster 1000 mg weekly): improvement in the signs of paralysis
inhibition of the Ca2+ ion flux into cells (Ca2+ ion flux into cells): up to 50%
colon carcinoma after four-week chemotherapy plus Caroverine (carcinoma of the colon): complete disappearance of the colon carcinoma
harmful side effects in test animals and patients [1]: without harmful side effects
effectiveness relative to the known antioxidants Ascorbate, Trolox and Glutathione [12]: at least three times as effective
radical interceptor property relative to Melatonine [12]: reach that of Melatonine

CCN(CC)CCn1c(=O)c(Cc2ccc(OC)cc2)nc2ccccc21.Cl [Caroverine.hydrochloride]
skin injuries after two weeks of UV irradiation (skin cancer): some reddening of the skin
cancer cells in tissue samples after two weeks of UV irradiation (skin cancer): no cancer cells could be detected
